Experimental data published in article PMC9939005 (Journal of medicinal chemistry, 2022).

Tests used:
[1] = tested on: HEL cells (containing the JAK2 V617F mutant); experiment: STAT5 phosphorylation in HEL cells, Western blot; assay type: cell-based, Human; details: for concentration up to which no inhibition of STAT5 phosphorylation was observed: 11: 1-hour incubation
JAK2 JH2 WT = JAK2 JH2 WT (Homo sapiens, UniProt O60674); assay type: binding
[2] = Parallel Artificial Membrane Permeation Assay; details: for PAMPA permeability, in words: PAMPA values close or equal to 0; for Papp at 18 h: pH 7.4
[3] = tested on: TF-1 cells starved of cytokine (WT JAK2); experiment: Stimulation of STAT5 phosphorylation in TF-1 cells starved of cytokine; assay type: cell-based, Human; details: 0.1, 0.5, and 2 μM
[4] = tested on: TF-1 cells (containing wild-type JAK2); experiment: STAT5 phosphorylation in TF-1 cells, Western blot; assay type: cell-based, Human; details: 1 hour

Chain of JAK2 JH2 WT (O60674 536-812): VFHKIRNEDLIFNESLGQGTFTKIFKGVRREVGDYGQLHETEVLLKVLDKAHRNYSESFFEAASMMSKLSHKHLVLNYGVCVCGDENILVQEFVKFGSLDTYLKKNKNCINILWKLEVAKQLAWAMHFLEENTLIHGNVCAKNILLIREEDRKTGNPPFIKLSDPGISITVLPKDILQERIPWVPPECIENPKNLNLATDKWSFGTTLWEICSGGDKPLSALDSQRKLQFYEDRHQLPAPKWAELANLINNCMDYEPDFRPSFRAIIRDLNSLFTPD

`Nc1nc(Nc2ccc(S(N)(=O)=O)cc2)nn1C(=O)c1c(F)cccc1F` [Compound 1, JNJ7706621, reference compound] gave an IC50 ([1]; Homo sapiens, HEL, read-out: IC50 (inhibition of STAT-5 phosphorylation)) of 1000 to 5000 nM.

With `Nc1nc(Nc2ccc(S(N)(=O)=O)cc2)nn1C(=O)Nc1ccc(-c2cccc(C(=O)O)n2)cc1` [Compound 3, 6-(4-(5-amino-3-((4-sulfamoylphenyl)amino)-1H-1,2,4-triazole-1-carboxamido)phenyl)picolinic acid] the “loss in binding affinity compared to 2” value (JAK2 JH2 WT; JAK2 JH2) was 3 fold.

With `Nc1nc(Nc2ccc(S(N)(=O)=O)cc2)nn1C(=O)Nc1ccc(-c2cccc(C(=O)O)c2)cc1` [Compound 7, 4’-(5-amino-3-((4-sulfamoylphenyl)amino)-1H-1,2,4-triazole-1-carboxamido)-[1,1’-biphenyl]-3-carboxylic acid] the “PAMPA permeability, in words” value [2] was “essentially impermeable”.

In the case of `COC(=O)c1cccc(-c2ccc(NC(=O)n3nc(Nc4ccc(S(N)(=O)=O)cc4)nc3N)cc2)c1` [Compound 8, Methyl 4’-(5-amino-3-((4-sulfamoylphenyl)amino)-1H-1,2,4-triazole-1-carboxamido)-[1,1’-biphenyl]-3-carboxylate], the “PAMPA permeability, in words” value [2] is reported as “essentially impermeable” and the “loss in binding affinity compared to 7” value (JAK2 JH2 WT; JAK2 JH2) is reported as “about 3 orders of magnitude”.

With `Nc1nc(Nc2ccc(S(N)(=O)=O)cc2)nn1C(=O)Nc1ccc(-c2ccccc2)cc1` [Compound 9, N-([1,1’-biphenyl]-4-yl)-5-amino-3-((4-sulfamoylphenyl)amino)-1H-1,2,4-triazole-1-carboxamide] the “PAMPA permeability, in words” value [2] was “essentially impermeable” and the “loss in binding affinity compared to 7” value (JAK2 JH2 WT; JAK2 JH2) was “about 3 orders of magnitude”.

In the case of `Nc1nc(Nc2ccc(S(N)(=O)=O)cc2)nn1C(=O)Nc1ccc(-c2ccc(OCc3ccccc3)c(C(=O)O)c2)cc1` [Compound 11, 4’-(5-amino-3-((4-sulfamoylphenyl)amino)-1H-1,2,4-triazole-1-carboxamido)-4-(benzyloxy)-[1,1’-biphenyl]-3-carboxylic acid], the “concentration up to which no inhibition of STAT5 phosphorylation was observed” value (from here on “concentration up to which no inhibition”) ([1]; HEL cells, Western blot) is reported as greater than 40 µM.

In the case of `Nc1nc(Nc2ccc(S(N)(=O)=O)cc2)nn1C(=O)Nc1ccc(-c2cc(OCc3ccccc3)cc(C(=O)O)c2)cc1` [Compound 12, 4’-(5-amino-3-((4-sulfamoylphenyl)amino)-1H-1,2,4-triazole-1-carboxamido)-5-(benzyloxy)-[1,1’-biphenyl]-3-carboxylic acid], the “increase in permeability compared to its isomer 11” value ([2]; PAMPA) is reported as 3 fold, the “concentration up to which no inhibition” value ([1]; HEL cells, Western blot) is reported as greater than 25 µM and the “weaker binder than 11” value (JAK2 JH2 WT; WT JAK2 JH2) is reported as 2 fold.

With `CNC(=O)c1ccc(Nc2nc(N)n(C(=O)Nc3ccc(-c4ccc(OCc5ccccc5)c(C(=O)O)c4)cc3)n2)cc1` [Compound 13, 4’-(5-amino-3-((4-(methylcarbamoyl)phenyl)amino)-1H-1,2,4-triazole-1-carboxamido)-4-(benzyloxy)-[1,1’-biphenyl]-3-carboxylic acid] the “stimulation of STAT5 phosphorylation” value [3] was “no stimulation of STAT5 phosphorylation was observed”, the “reduced permeability (compared to 11)” value ([2]; PAMPA) was roughly 2 fold and the “inhibition of STAT-5 phosphorylation” value ([1]; HEL cells, 20 μM, Western blot) was “complete inhibition”. The “concentration range in which inhibition of STAT5 phosphorylation was observed” value ([1]; HEL cells, tested at 2-30 μM, 1 hour) was 10 to 20 µM, the “inhibition of STAT-5 phosphorylation” value ([4]; 20 μM, Western blot) was “complete inhibition” and the “concentration range in which inhibition of STAT5 phosphorylation was observed” value ([4]; tested at 2-30 μM) was 10 to 20 µM. The “stronger binding for WT JH2 than 2” value (JAK2 JH2 WT) was 10 fold.

In the case of `CNC(=O)c1ccc(Nc2nc(N)n(C(=O)Nc3ccc(-c4cc(OCc5ccccc5)cc(C(=O)O)c4)cc3)n2)cc1` [Compound 14, 4’-(5-amino-3-((4-(methylcarbamoyl)phenyl)amino)-1H-1,2,4-triazole-1-carboxamido)-5-(benzyloxy)-[1,1’-biphenyl]-3-carboxylic acid], the “concentration up to which no inhibition” value ([1]; HEL cells, Western blot) is reported as greater than 30 µM and the “improved binding affinity compared to 12” value (JAK2 JH2 WT; WT JAK2 JH2) is reported as 2 fold.

In the case of `O=C(N[C@H](CO)[C@H](O)c1ccc([N+](=O)[O-])cc1)C(Cl)Cl` [chloramphenicol, reference compound], the Papp at 18 h ([2]; PAMPA) is reported as 4.36 to 4.99 ×10⁻⁶ cm/s.

For `Cn1c(=O)c2[nH]cnc2n(C)c1=O.O` [theophylline, reference compound], the Papp at 18 h ([2]; PAMPA) was 0.27 to 0.33 ×10⁻⁶ cm/s.
